Measured values: patent US20240009314A1, “COMPOSITIONS AND METHODS FOR TARGETING TUMOR-ASSOCIATED MACROPHAGES” (Resolute Science, priority 2020, published 2024)

Key:
GL261 cells = assay: Anti-tumor activity in immunocompetent GL261 glioma mouse model; format: in vivo
Method: The anti-tumor activity of Target-5 was assessed in vivo using an immunocompetent glioma mouse model. Three distinct doses of Target-5 were evaluated against Temozolomide, an FDA-approved chemotherapeutic agent, and a vehicle control in C57BL/6 mice.
Specifically, female C57BL/6 mice (Jackson Laboratories) were inoculated with 5×10^6 GL261 cells (mycoplasma tested-negative) with 96% viability and 100% tumor take rate (cell passages prior to plating (#7)).
Target-5 was formulated in 0.9% saline and the mice were treated twice a week with either 5 mg/kg, 7.5 mg/kg, or 10 mg/kg Target-5 by tail vein injection. The dosing volume was adjusted for body weight. Temozolomide was formulated in 10% DMSO in 0.9% sodium chloride and mice were treated twice a week by gavage at a dosage of 12.5 mg/kg. n=10 for each group.

MC38 tumor cells = assay: Anti-tumor activity in MC38 colon cancer mouse model; format: in vivo; settings: 40 mg/kg intraperitoneally q3 days×4
Method: Specifically, 8- to 12-week-old C57BL/6 female mice (Charles River Laboratories) were inoculated with 5×10^5 MC38 tumor cells in 0% Matrigel subcutaneously in the flank in a volume of 0.1 mL/mouse on Study Day 0. A pair match was performed when the tumors reached an average size of 80-120 mm 3 at which time treatment began.
The dosing volume was adjusted for body weight. Gemcitabine was administered at a dosage of 40 mg/kg and delivered intraperitoneally q3 days×4. Tumor was measured by calipers twice a week. Body weight was measured every day for 5 days and then bi-weekly to the end of the study. (n=10/group). The endpoint of study was when tumor volume reached 1500 mm^3.

Structure (SMILES)	change in body weight (GL261 cells; any treatment group, FIG. 8C)	Mean tumor volume (GL261 cells; day 21, 12.5 mg/kg twice a week by gavage) [mm^3]	tumor volume compared to Target-5 groups (MC38 tumor cells)
Cn1nnc2c(C(N)=O)ncn2c1=O [temozolomide]	no significant change	302.6	–
Nc1ccn([C@@H]2O[C@H](CO)[C@@H](O)C2(F)F)c(=O)n1 [Gemcitabine]	–	–	appeared to reduce tumor volume more
